Test results as given in patent US20030087887A1, “Novel fusidic acid derivatives” (priority 2001, published 2003).
In brackets after ≈: the same amount, converted by molar mass. Like-named read-outs stand apart in the source and are kept apart here.

Assays:
Format in all cases: cell-based
[1] = tested on: Saccaromyces cervisiae ZZ7; assay: MIC, agar diffusion, Saccaromyces cervisiae ZZ7; conditions: Saccharomyces cerevisiae, read-out: in vitro activities MIC
Source text: (§1) In vitro investigations have shown a relatively high potency of compounds of the invention against all bacteria including gram-positive and gram-negative strains (Staphylococci, Streptococci, Corynebacteriae, Mycobacteriae, Proteus, Propionibacterium, Pseudomonas, Neisseriae, E. coli) and fungal strains (Candida and Aspergillus). […] In addition, the studies of post-antibiotic effects point towards a strong bactericidal effect of the compounds of the invention. […] The potency of new polyaminated fusidic acid analogues is estimated by comparing the inhibition of growth of different microorganisms produced by known concentrations of the analogue to be examined and a reference compound such as fusidic acid. The microbiological assay set up is in agreement with the European Pharmacopoeia 3rd edition (1997). It is an agar diffusion method where the same volume of the tested solution is added to cavities in agar. The inhibition zones are function of the concentration of the fusidic acid analogue used. All assays are run with fusidic acid as reference substance.

[2] = tested on: Corynebacterium xerosis FF; assay: MIC, agar diffusion, Corynebacterium xerosis FF; conditions: read-out: in vitro activities MIC
Source text: as §1

S. aureus CJ234F = assay: MIC, agar diffusion, S. aureus CJ234F; conditions: Staphylococcus aureus; S. aureus CJ234F (MRSA, Fus. resistant); read-out: in vitro activities MIC
Source text: as §1

[3] = tested on: Pseudomonas aeruginosa BA17; assay: MIC, agar diffusion, Pseudomonas aeruginosa BA17; conditions: read-out: in vitro activities MIC
Source text: as §1

[4] = tested on: Streptococcus pyogenes EC88; assay: MIC, agar diffusion, Streptococcus pyogenes EC88; conditions: read-out: in vitro activities MIC
Source text: as §1

E. coli HA165 = assay: MIC, agar diffusion, E. coli HA165; conditions: Escherichia coli, read-out: in vitro activities MIC
Source text: as §1

Candida albicans ZA = assay: MIC, agar diffusion, Candida albicans ZA; conditions: read-out: in vitro activities MIC
Source text: as §1

S. aureus CJ234R = assay: MIC, agar diffusion, S. aureus CJ234R; conditions: Staphylococcus aureus, read-out: in vitro activities MIC
Source text: as §1

[5] = tested on: Streptococcus faecium EI19; assay: MIC, agar diffusion, Streptococcus faecium EI19; conditions: Enterococcus faecium; Streptococcus faecium EI19 (Penicillin resistant); read-out: in vitro activities MIC
Source text: as §1

[6] = tested on: Propionibacterium acnes FN33; assay: MIC, agar diffusion, Propionibacterium acnes FN33; conditions: Cutibacterium acnes, read-out: in vitro activities MIC
Source text: as §1

Asbergillus niger ZM35 = assay: MIC, agar diffusion, Asbergillus niger ZM35; conditions: Aspergillus niger, read-out: in vitro activities MIC
Source text: as §1

S. aureus CJ247 = assay: MIC, agar diffusion, S. aureus CJ247; conditions: Staphylococcus aureus, read-out: in vitro activities MIC
Source text: as §1

S. aureus CJ200 = assay: MIC, agar diffusion, S. aureus CJ200; conditions: Staphylococcus aureus, read-out: in vitro activities MIC
Source text: as §1

S. epidermis CK5 = assay: MIC, agar diffusion, S. epidermis CK5; conditions: Staphylococcus epidermidis, read-out: in vitro activities MIC
Source text: as §1

S. aureus N6 = assay: MIC, agar diffusion, S. aureus N6; conditions: Staphylococcus aureus; S. aureus N6 (Fus. resistant); read-out: in vitro activities MIC
Source text: as §1

Row | Compound | MIC [1] | MIC [2] | MIC (S. aureus CJ234F) | MIC [3] | MIC [4] | MIC (E. coli HA165) | MIC (Candida albicans ZA) | MIC (S. aureus CJ234R; MRSA) | MIC [5] | MIC [6] | MIC (Asbergillus niger ZM35) | MIC (S. aureus CJ247) | MIC (S. aureus CJ200) | MIC (S. epidermis CK5) | MIC (S. aureus N6) | MIC (S. aureus CJ234R; S. aureus CJ234R (MRSA, Rifampicin resistant))
1 | CC(C)CCCC(C(=O)NCCCNCCCNCCCN)[C@@H]1CC[C@@]2(C)C1C[C@@H](O)C1[C@@]3(C)CC[C@@H](O)[C@@H](C)C3CC[C@@]12C (stereo partly drawn) [Compound 145, 21-N-{[3′-({3′-[(3′-aminopropyl)amino]propyl}amino)propyl]}-16-desacetoxy-17R,20S,24,25-tetrahydrofusid-21-amide] | 4 µg/mL (≈ 6.32 µM) | 1 µg/mL (≈ 1.58 µM) | 1 µg/mL (≈ 1.58 µM) | 4 µg/mL (≈ 6.32 µM) | 4 µg/mL (≈ 6.32 µM) | 4 µg/mL (≈ 6.32 µM) | > 125 µg/mL | 4 µg/mL (≈ 6.32 µM) | 4 µg/mL (≈ 6.32 µM) | 1 µg/mL (≈ 1.58 µM) | > 125 µg/mL | 1 µg/mL (≈ 1.58 µM) | 1 µg/mL (≈ 1.58 µM) | 1 µg/mL (≈ 1.58 µM) | 1 µg/mL (≈ 1.58 µM) | 
2 | CC(=O)O[C@H]1C[C@@]2(C)C(C[C@@H](O)C3[C@@]4(C)CC[C@@H](OC(C)=O)[C@@H](C)C4CC[C@@]32C)[C@@H]1[C@H](CCCC(C)C)C(=O)NCCCNCCCNCCCN (stereo partly drawn) [Compound 172, 21-N-[3′-({3′-[(3′-aminopropyl)amino]propyl}amino)propyl]-3-OAc-17R,20S,24,25-tetrahydrofusid-21-amide] | 64 µg/mL (≈ 87.3 µM) | 4 µg/mL (≈ 5.46 µM) | 4 µg/mL (≈ 5.46 µM) | 4 µg/mL (≈ 5.46 µM) | 4 µg/mL (≈ 5.46 µM) | 4 µg/mL (≈ 5.46 µM) | 64 µg/mL (≈ 87.3 µM) | 1 µg/mL (≈ 1.36 µM) |  | 1 µg/mL (≈ 1.36 µM) | 64 µg/mL (≈ 87.3 µM) | 4 µg/mL (≈ 5.46 µM) | 4 µg/mL (≈ 5.46 µM) | 4 µg/mL (≈ 5.46 µM) | 4 µg/mL (≈ 5.46 µM) | 
3 | CC(=O)O[C@H]1C[C@@]2(C)[C@@H](C[C@@H](O)[C@H]3[C@@]4(C)CC[C@@H](O)[C@@H](C)[C@@H]4CC[C@@]32C)/C1=C(\CCC=C(C)C)C(=O)O [FA, fusidic acid] | > 64 µg/mL | 0.1 µg/mL (≈ 0.194 µM) | 16 µg/mL (≈ 31 µM) | > 64 µg/mL | 16 µg/mL (≈ 31 µM) | > 64 µg/mL | > 64 µg/mL |  |  | 0.2 µg/mL (≈ 0.387 µM) | > 64 µg/mL | 0.02 µg/mL (≈ 0.0387 µM) | 0.02 µg/mL (≈ 0.0387 µM) | 0.02 µg/mL (≈ 0.0387 µM) | 16 µg/mL (≈ 31 µM) | 0.02 µg/mL (≈ 0.0387 µM)
